Like-named read-outs stand apart in the source and are kept apart here. Bridge positions count the residues as written; N and C are the ends. Square brackets hold non-standard residues; d marks the D form. Peptide text beside a SMILES is read from it. R8 = C=CCCCCCC[C@@](C)(N)C(=O)O; S5 = C=CCCC[C@](C)(N)C(=O)O; Nle = CCCC[C@H](N)C(=O)O
Columns and labels:
[1] = tested on: H5N1 A/Hong Kong/213/2003; test: microbe, parasite or virus in culture; assay type: cell-based, influenza A virus; settings: read-out: EC50
H7N9 A/Anhui/1/2013 = test: microbe, parasite or virus in culture; assay type: cell-based, influenza A virus; settings: read-out: EC50
[2] = tested on: influenza virus, various viral strains; test: organism not typed; assay type: cell-based; settings: Influenza A H1N1 A/Solomon Is./3/2006-M; Drug Assay Visual; read-out: EC50
[3] = tested on: H1N1 A/Solomon Island/03/2006; assay type: cell-based, influenza A virus; settings: Influenza A H1N1 A/Solomon Is./3/2006-M; Drug Assay Neutral Red; read-out: EC50
H1N1 California/07/2009 [4] = test: microbe, parasite or virus in culture; assay type: cell-based, influenza A virus
in vitro = settings: dog
H3N2 Perth/16/2009 [5] = test: microbe, parasite or virus in culture; assay type: cell-based, influenza A virus; settings: for EC90: Influenza A H3N2 Perth/16/2009, Drug Assay Visual/Neutral Red
H3N2 Perth/16/2009 [6] = test: microbe, parasite or virus in culture; assay type: cell-based, influenza A virus
H1N1 California/07/2009 [7] = test: microbe, parasite or virus in culture; assay type: cell-based, influenza A virus; settings: for EC90: Drug Assay Visual/Neutral Red
[8] = Cytopathic effect/toxicity (Visual), MDCK cells, read-out: EC50 (μM) H1N1 California/07/2009
[9] = Influenza A H1N1 California/07/2009, Drug Assay Visual, read-out: EC50
[10] = CC50 (μM) H1N1 California/07/2009, Cell cytotoxicity (CC), run with H1N1 California/07/2009
[11] = CC50 (μM) H3N2 Perth/16/2009, Cell cytotoxicity (CC), run with H3N2 Perth/16/2009
[12] = CC50, run with Influenza A H1N1 A/Solomon Is./3/2006-M, Neutral Red
[13] = CC50, run with Influenza A H1N1 A/Solomon Is./3/2006-M, Visual
[14] = CC50, run with Influenza A H1N1 California/07/20/09 (so in the source), later run, Neutral Red
[15] = CC50, run with Influenza A H1N1 California/07/20/09 (so in the source), Visual/Neutral Red
[16] = CC50, run with Influenza A H1N1 California/07/2009, Neutral Red
[17] = CC50, run with Influenza A H1N1 California/07/2009, Visual
[18] = CC50, run with Influenza A H3N2 Perth/16/2006 (so in the source), Neutral Red
[19] = CC50, run with Influenza A H3N2 Perth/16/2006 (so in the source), Visual
[20] = CC50, run with Influenza A H3N2 Perth/16/2009, last run, Neutral Red
[21] = CC50, run with Influenza A H3N2 Perth/16/2009, Visual/Neutral Red
[22] = Cytopathic effect/toxicity (Neutral red), MDCK cells, read-out: EC50 (μM) H3N2 Perth/16/2009
[23] = Influenza A H3N2 Perth/16/2006 (so in the source), Drug Assay Neutral Red, read-out: EC50
[24] = Influenza A H3N2 Perth/16/2009, last run, Drug Assay Neutral Red, read-out: EC50
[25] = Cytopathic effect/toxicity (Visual), MDCK cells, read-out: EC50 (μM) H3N2 Perth/16/2009
[26] = Influenza A H3N2 Perth/16/2006 (so in the source), Drug Assay Visual, read-out: EC50
[27] = Cytopathic effect/toxicity (Neutral red), MDCK cells, read-out: EC50 (μM) H1N1 California/07/2009
[28] = Influenza A H1N1 California/07/20/09 (so in the source), later run, Drug Assay Neutral Red, read-out: EC50
[29] = Influenza A H1N1 California/07/20/09 (so in the source)
[30] = Influenza A H1N1 California/07/2009, Drug Assay Neutral Red, read-out: EC50

Structure (SMILES) | EC50 [1] [µM] | EC50 (H7N9 A/Anhui/1/2013) [µM] | EC50 [2] [µM] | EC50 [3] [µM] | EC50 (H1N1 California/07/2009 [4]; [8]) [µM] | EC50 (H1N1 California/07/2009 [4]; [9]) [µM] | CC50 (in vitro; CC50) [µM] | CC50 (in vitro; [10]) [µM] | CC50 (in vitro; [11]) [µM] | CC50 (in vitro; [12]) [µM] | CC50 (in vitro; [13]) [µM] | CC50 (in vitro; [14]) [µM] | CC50 (in vitro; [15]) [µM] | CC50 (in vitro; [16]) [µM] | CC50 (in vitro; [17]) [µM] | CC50 (in vitro; [18]) [µM] | CC50 (in vitro; [19]) [µM] | CC50 (in vitro; [20]) [µM] | CC50 (in vitro; [21]) [µM] | EC50 (H3N2 Perth/16/2009 [5]; [22]) [µM] | other results
CCCC[C@H](NC(C)=O)C(=O)N[C@@H](CC(=O)O)C(=O)N[C@H](C(=O)N[C@@H](CC(N)=O)C(=O)N[C@]1(C)CCCCCCC=CCCC[C@@](C)(C(=O)N[C@@H](C)C(=O)N[C@@H](C)C(=O)N[C@@H](C)C(=O)N[C@@H](C)C(=O)N[C@@H](C)C(N)=O)NC(=O)[C@H](C)NC(=O)[C@H](CC(C)C)NC(=O)[C@H](Cc2ccccc2)NC(=O)[C@H](CC(C)C)NC(=O)[C@H](CC(C)C)NC(=O)[C@H]([C@@H](C)O)NC1=O)C(C)C [SP-25] (Ac-[Nle]DVN[R8]TLLFLA[S5]AAAAA-NH2; staple 5-12) | > 50 | 33 | 3.6 | 6.5 | < 1.5 | 0.57 | > 50 | > 100 | > 100 | > 100 | > 100 | > 100 | > 100 | > 100 | > 100 | > 100 | > 100 | > 100 | > 100 | < 1.5 | EC50 (H3N2 Perth/16/2009 [5]; [23]): 0.43 µM; EC50 (H3N2 Perth/16/2009 [5]; [24]): 49 µM; EC90 (H3N2 Perth/16/2009 [5]): 49 µM; EC50 (H3N2 Perth/16/2009 [6]; [25]): < 1.5 µM; EC50 (H3N2 Perth/16/2009 [6]; [26]): 0.34 µM; EC50 (H1N1 California/07/2009 [7]; [27]): < 1.5 µM; EC50 (H1N1 California/07/2009 [7]; [28]): 6.6 µM; EC90 (H1N1 California/07/2009 [7]; [29]): 8.2 µM; EC50 (H1N1 California/07/2009 [7]; [30]): 1.1 µM
CCCC[C@H](NC(C)=O)C(=O)N[C@@H](CC(=O)O)C(=O)N[C@H](C(=O)N[C@@H](CC(N)=O)C(=O)N[C@]1(C)CCCCCCC=CCCC[C@@](C)(C(=O)N[C@@H](CCC(N)=O)C(=O)N[C@@H](C)C(=O)N[C@@H](C)C(=O)N[C@@H](C)C(=O)N[C@@H](C)C(N)=O)NC(=O)[C@H](C)NC(=O)[C@H](CC(C)C)NC(=O)[C@H](Cc2ccccc2)NC(=O)[C@H](CC(C)C)NC(=O)[C@H](CC(C)C)NC(=O)[C@H]([C@@H](C)O)NC1=O)C(C)C [SP-27] (Ac-[Nle]DVN[R8]TLLFLA[S5]QAAAA-NH2; staple 5-12) | > 50 | 9.6 | 32 | 75 | < 1.5 | 0.57 | > 50 | > 100 | > 100 | > 100 | > 100 | > 100 | > 100 | > 100 | > 100 | > 100 | > 100 | > 100 | > 100 | 1.5 to 10 | EC50 (H3N2 Perth/16/2009 [5]; [23]): 1.7 µM; EC50 (H3N2 Perth/16/2009 [5]; [24]): 35 µM; EC90 (H3N2 Perth/16/2009 [5]): 35 µM; EC50 (H3N2 Perth/16/2009 [6]; [25]): < 1.5 µM; EC50 (H3N2 Perth/16/2009 [6]; [26]): 0.32 µM; EC50 (H1N1 California/07/2009 [7]; [27]): < 1.5 µM; EC50 (H1N1 California/07/2009 [7]; [28]): 8.7 µM; EC90 (H1N1 California/07/2009 [7]; [29]): 8 µM; EC50 (H1N1 California/07/2009 [7]; [30]): 0.44 µM

From patent US10059741B2 (priority 2015, dated 2018)
